Experimental data published in patent US20260191848A1, “METHODS OF REVERSING PARP-RESISTANCE IN CANCER” (THE TRUSTEES OF COLUMBIA UNIVERSITY IN THE CITY OF NEW YORK, priority 2023, published 2026).
Entries after “also recorded” stand apart in the source; their conditions may differ.

Key:
[1] = test system: Bard1-def Tal-sensitive tumors; assay: In-vivo PARPi-response-and-recurrence model, Bard1-def orthotopic allograft (talazoparib-sensitive)
Description: (§2) Treatment with Tal (0.3 mg/kg body weight per day, five days/week, oral gavage) began two weeks following tumor-cell injection. Tumors were collected after tumor relapse in the Tal-treated group and were then dissociated and selected to generate Tal-resistant Brca1-def breast cancer cell lines. […] Tal-resistant, Brca1-def tumors were then isolated at 13 weeks following tumor-cell injection. n=32 for Veh-treated mice; n=24 for Tal-treated mice. Data are presented as mean values±SEM. […] FIG. 1C, Mice were injected with the Tal-resistant (“Tal-Res”), Brca1-def breast cancer cell line isolated in B and then checked for sensitivity to Tal. n=21 for Veh-treated mice; n=31 for Tal-treated mice. […] Treatment began one-week post tumor-cell injection. […] Data are presented as mean values±SEM. […] FIG. 1F, Mice were injected with the Tal-Res, Bard1-def breast cancer cell line isolated in E and then checked for sensitivity to Tal. n=12 for Veh-treated mice; n=14 for Tal-treated mice.
(§3) To study mechanisms of PARPi resistance in vivo, mammary glands from syngeneic B6/129F1 mice were orthotopically injected with luciferase-labeled Brca1- or Bard1-deficient mammary cancer cell lines (hereafter referred to as Brca1-def and Bard1-def) derived from Brca1- or Bard1-conditionally deleted mice^23 (FIGS. 1A and 1D). As tumors started to grow, tumor-bearing mice were randomized and treated five days/week with either vehicle or the PARPi talazoparib (referred to as “Tal” in the figures) at a dose of 0.3 mg/kg body weight/day starting at either 14 days (Brca1-def) or 7 days (Bard1-def) post tumor-cell injection. Tumor size was monitored weekly (FIGS. 1B and 1E). […] While tumor growth in Brca1-def models was monitored for 13 weeks post tumor-cell injection, Bard1-def models could only be monitored for 5 weeks post tumor-cell injection due to the onset of cachexia, as described in the previous studies^36. PARPi-resistant tumors were then collected, and cancer cells were purified and re-injected into the mammary glands of new B6/129F1 recipient mice. Mice were treated following the same dosing schedule as described above.

[2] = test system: talazoparib-resistant Brca1-def tumors; assay: Talazoparib-resistant Brca1-def orthotopic allograft in B6/129F1 mice (tumor growth, weight, immunostaining, body weight); assay type: in vivo, mouse; details: for body weight: from treatment initiation until endpoint, talazoparib 0.3 mg/kg/day, axitinib 30 mg/kg/day
Description: (§4) Treatment with Tal (0.3 mg/kg body weight per day, five days/week, oral gavage) began two weeks following tumor-cell injection. Tumors were collected after tumor relapse in the Tal-treated group and were then dissociated and selected to generate Tal-resistant Brca1-def breast cancer cell lines. […] Tal-resistant, Brca1-def tumors were then isolated at 13 weeks following tumor-cell injection. n=32 for Veh-treated mice; n=24 for Tal-treated mice. Data are presented as mean values±SEM. P values were determined by a two-tailed, unpaired, Mann-Whitney test. * at 2 weeks indicates P=0.0169; *** at 3 weeks indicates P=0.0007; **** at 5 and 7 weeks indicates P<0.0001. […] P values were determined by a two-tailed, unpaired, Mann-Whitney test. * at 3 weeks indicates P=0.0174; ns: not significant. […] Treatment began one-week post tumor-cell injection. […] Data are presented as mean values±SEM. P values were determined by a two-tailed, unpaired, Mann-Whitney test. ** at 3 and 4 weeks indicates P=0.0043; ** at 5 weeks indicates P=0.0095.

[3] = test system: Brca1-def Tal-sensitive tumors; assay: In-vivo PARPi-response-and-recurrence model, Brca1-def orthotopic allograft (talazoparib-sensitive)
Description: as §2, §3

[4] = test system: talazoparib-resistant Bard1-def tumors; assay: Talazoparib-resistant Bard1-def orthotopic allograft in B6/129F1 mice (tumor growth, weight, immunostaining, body weight); assay type: in vivo, mouse; details: for body weight: from treatment initiation until endpoint, talazoparib 0.3 mg/kg/day, axitinib 30 mg/kg/day
Description: as §4

[5] = test system: relapsed high-grade ovarian cancer; details: relapsed high-grade ovarian cancer patients, p=0.007; cited from earlier work
[6] = test system: talazoparib-resistant Bard1-def tumor cells (pAKT Ser473, pSTAT3); assay: Immunoblot after recombinant PGF treatment, talazoparib-resistant Bard1-def tumor cells (Con vs Flt1i); assay type: cell-based; details: 50 ng/ml mouse recombinant PGF, serum-free medium, 10 min
Description: (§1) FIG. 18A-FIG. 18H—FLT1 activation in Brca1- and Bard1-def breast tumor cells induces pro-survival AKT signaling. (FIG. 18A, FIG. 18B) Immunoblot analysis was performed on lysates from Flt1-expressing (Con) and -deficient (Flt1i), talazoparib-resistant (“Res”) Brca1- and Bard1-def tumor cells, that were treated with 50 ng/ml of mouse PGF protein using antibodies against phosphorylated-AKT at serine 473 (pAKT Ser473), AKT, and β-actin. […] Scale bars, 20 μm. (FIG. 18D) Immunostained sections from (C) were quantified using automated QuPath software to identify positively stained cells. n=5 mice for Sen and Res groups for both models. Data were presented as mean values±SEM. […] (FIG. 18E) Representative images of IHC for pAKT Ser473 staining on talazoparib-treated “Tal”, Lenti-Con- and Flt1i-expressing Res tumor sections from both models (see FIG. 3C). Scale bars, 20 μm. […] (FIG. 18G) Representative images of IHC for pAKT Ser473 on Tal-treated and Tal+Axi-treated tumor sections from both models (see FIG. 4A/D). Scale bars, 20 μm. (FIG. 18H) Immunostained sections from (G) were quantified using automated QuPath software to identify positively stained cells. For the Brca1-def model, n=4 tumors from both Tal-treated and Tal+Axi-treated mice. For the Bard1-def model, n=5 tumors from both Tal-treated and Tal+Axi-treated mice. Data were presented as mean values±SEM. […]

[7] = test system: talazoparib-resistant Brca1-def tumor cells (pAKT Ser473, pSTAT3); assay: Immunoblot after recombinant PGF treatment, talazoparib-resistant Brca1-def tumor cells (Con vs Flt1i); assay type: cell-based; details: 50 ng/ml mouse recombinant PGF, serum-free medium, 15 s
Description: as §1

[8] = talazoparib alone 0.3 mg/kg/day, five days/week, vs vehicle

Cn1ncnc1[C@H]1c2n[nH]c(=O)c3cc(F)cc(c23)N[C@@H]1c1ccc(F)cc1 [talazoparib]
relapse tumors arose, time post tumor-cell injection ([1]; Tal treatment begun one week post tumor-cell injection): about three | development of drug resistance (recurrence of tumors) ([1]; continued talazoparib treatment, monitored 5 weeks post tumor-cell injection): eventually developed drug resistance; also recorded: soon progressed | tumor growth ([1]; talazoparib 0.3 mg/kg body weight/day, five days/week, oral gavage, from 7 days post tumor-cell injection, vs vehicle): responded initially | body weight [2]: remained stable | tumor growth and weight at endpoint, Flt1-repressed (Flt1i) resistant tumor cells ([2]; talazoparib 0.3 mg/kg body weight/day, five days/week, Flt1i+Tal vs Lenti-Con+Tal, endpoint 4 weeks): re-sensitizes PARPi-resistant tumors to talazoparib | tumor regression / response of PARPi-resistant tumor lines to PARPi treatment [2, 8]: no tumor regression; also recorded: failed to respond in-vivo | relapse, time following the start of Tal treatment ([3]; Tal 0.3 mg/kg per day, five days/week, oral gavage, begun two weeks after tumor-cell injection): about seven | development of drug resistance (recurrence of tumors) ([3]; continued talazoparib treatment, monitored 13 weeks post tumor-cell injection): eventually developed drug resistance; also recorded: eventually became refractory to the treatment | tumor growth ([3]; talazoparib 0.3 mg/kg body weight/day, five days/week, oral gavage, from 14 days post tumor-cell injection, vs vehicle): suppressed tumor growth for several weeks | body weight [4]: remained stable | tumor growth and weight at endpoint, Flt1-repressed (Flt1i) resistant tumor cells ([4]; talazoparib 0.3 mg/kg body weight/day, five days/week, Flt1i+Tal vs Lenti-Con+Tal, endpoint 3 weeks): re-sensitizes PARPi-resistant tumors to talazoparib | tumor regression / response of PARPi-resistant tumor lines to PARPi treatment [4, 8]: no tumor regression; also recorded: failed to respond in-vivo

CNC(=O)c1ccccc1Sc1ccc2c(/C=C/c3ccccn3)n[nH]c2c1 [axitinib]
body weight [2]: remained stable | body weight [4]: remained stable

O=C(c1cc(Cc2n[nH]c(=O)c3ccccc23)ccc1F)N1CCN(C(=O)C2CC2)CC1 [olaparib]
median progression-free survival (PFS) [5]: 8.2 months

B1: PGF: mouse recombinant PGF (R&D Systems, #465-PL-010), placental growth factor (protein)
chain: VHSQGALSAGNNSTEVEVVPFNEVWGRSYCRPMEKLVYILDEYPDEVSHIFSPSCVLLSRCSGCCGDEGLHCVPIKTANITMQILKIPPNRDPHFYVEMTFSQDVLCECRPILETTKAERRKTKGKRKRSRNSQTEEPHP
activation of AKT (pAKT Ser473 immunoblot) [6]: FLT1-dependent activation of AKT | activation of STAT3 (pSTAT3 immunoblot) [6]: not STAT3 | activation of AKT (pAKT Ser473 immunoblot) [7]: FLT1-dependent activation of AKT | activation of STAT3 (pSTAT3 immunoblot) [7]: not STAT3
